# In ChEMBL document CHEMBL2074135, “Recognition of L-amino acid ester compounds by rat peptide transporters PEPT1 and PEPT2” (J Pharmacol Exp Ther, 1999):
# pKi: −log10 of the molar value. Values joined by “and” are separate entries in the source; they are usually repeats but may differ in a detail not shown here. Equal entries are not always repeated.
# Tests used:
# Format in all cases: functional, cell-based
# [1] = target: T1, Solute carrier family 15 member 1 (Rattus norvegicus) (UniProt P51574); assay: TP_TRANSPORTER: inhibition of Gly-Sar uptake (Gly-Sar: 20 uM, Ala-OMe: 10000 uM) in PEPT1-expressing LLC-PK1 cells
# T1 sequence (whole entry): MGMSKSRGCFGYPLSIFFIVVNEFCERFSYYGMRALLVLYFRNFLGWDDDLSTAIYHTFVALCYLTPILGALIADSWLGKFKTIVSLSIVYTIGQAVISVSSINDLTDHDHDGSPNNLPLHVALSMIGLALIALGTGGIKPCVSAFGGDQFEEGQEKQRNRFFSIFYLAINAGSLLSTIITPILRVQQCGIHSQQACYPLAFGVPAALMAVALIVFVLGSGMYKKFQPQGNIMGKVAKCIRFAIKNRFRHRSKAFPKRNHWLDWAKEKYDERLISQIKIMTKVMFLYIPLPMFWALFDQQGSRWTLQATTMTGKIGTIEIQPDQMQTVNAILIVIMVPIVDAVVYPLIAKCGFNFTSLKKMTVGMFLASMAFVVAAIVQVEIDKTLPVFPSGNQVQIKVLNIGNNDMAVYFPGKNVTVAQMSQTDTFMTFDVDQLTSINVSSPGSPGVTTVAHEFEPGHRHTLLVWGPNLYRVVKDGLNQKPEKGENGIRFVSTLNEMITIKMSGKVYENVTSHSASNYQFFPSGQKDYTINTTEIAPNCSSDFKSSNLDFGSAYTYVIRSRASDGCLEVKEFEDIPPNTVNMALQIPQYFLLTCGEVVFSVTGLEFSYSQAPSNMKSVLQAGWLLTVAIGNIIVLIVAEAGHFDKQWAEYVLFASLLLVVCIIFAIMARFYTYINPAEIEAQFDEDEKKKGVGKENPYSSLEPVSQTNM
# [2] = target: T2, Solute carrier family 15 member 2 (Rattus norvegicus) (UniProt Q63424); assay: TP_TRANSPORTER: inhibition of Gly-Sar uptake (Gly-Sar: 20 uM, Ala-OMe: 10000 uM) in PEPT2-expressing LLC-PK1 cells
# T2 sequence (whole entry): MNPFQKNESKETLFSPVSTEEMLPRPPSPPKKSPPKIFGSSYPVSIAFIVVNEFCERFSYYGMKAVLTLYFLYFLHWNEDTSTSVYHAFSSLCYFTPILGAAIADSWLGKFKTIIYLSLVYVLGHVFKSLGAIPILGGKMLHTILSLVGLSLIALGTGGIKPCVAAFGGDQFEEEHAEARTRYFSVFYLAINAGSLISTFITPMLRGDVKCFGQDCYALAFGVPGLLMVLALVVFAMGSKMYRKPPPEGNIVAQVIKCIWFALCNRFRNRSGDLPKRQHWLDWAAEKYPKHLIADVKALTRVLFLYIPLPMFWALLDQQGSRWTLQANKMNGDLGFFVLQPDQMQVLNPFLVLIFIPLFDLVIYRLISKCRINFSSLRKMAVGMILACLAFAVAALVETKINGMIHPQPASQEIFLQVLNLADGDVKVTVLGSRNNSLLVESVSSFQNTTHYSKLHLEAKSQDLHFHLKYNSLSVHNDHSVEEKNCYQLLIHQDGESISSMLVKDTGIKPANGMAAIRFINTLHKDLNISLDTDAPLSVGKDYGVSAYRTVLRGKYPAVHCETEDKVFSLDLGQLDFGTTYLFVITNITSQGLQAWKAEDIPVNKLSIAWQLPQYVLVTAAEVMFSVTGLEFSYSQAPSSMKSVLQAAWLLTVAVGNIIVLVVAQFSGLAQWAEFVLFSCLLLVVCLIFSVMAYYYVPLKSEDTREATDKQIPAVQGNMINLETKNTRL
# [3] = target: T2, Solute carrier family 15 member 2 (Rattus norvegicus); assay: TP_TRANSPORTER: inhibition of Gly-Sar uptake (Gly-Sar: 20 uM, Val-tBu: 10000 uM) in PEPT2-expressing LLC-PK1 cells
# [4] = target: T1, Solute carrier family 15 member 1 (Rattus norvegicus); assay: TP_TRANSPORTER: inhibition of Gly-Sar uptake (Gly-Sar: 20 uM, Val-tBu: 10000 uM) in PEPT1-expressing LLC-PK1 cells
# [5] = target: T2, Solute carrier family 15 member 2 (Rattus norvegicus); assay: TP_TRANSPORTER: inhibition of Gly-Sar uptake (Gly-Sar: 20 uM, Tyr-OMe: 10000 uM) in PEPT2-expressing LLC-PK1 cells
# [6] = target: T3, Solute carrier family 15 member 1 (Rattus norvegicus, UniProt P51574); assay: TP_TRANSPORTER: inhibition of Gly-Sar uptake in PEPT1-expressing LLC-PK1 cells
# T3 sequence (P51574 whole entry): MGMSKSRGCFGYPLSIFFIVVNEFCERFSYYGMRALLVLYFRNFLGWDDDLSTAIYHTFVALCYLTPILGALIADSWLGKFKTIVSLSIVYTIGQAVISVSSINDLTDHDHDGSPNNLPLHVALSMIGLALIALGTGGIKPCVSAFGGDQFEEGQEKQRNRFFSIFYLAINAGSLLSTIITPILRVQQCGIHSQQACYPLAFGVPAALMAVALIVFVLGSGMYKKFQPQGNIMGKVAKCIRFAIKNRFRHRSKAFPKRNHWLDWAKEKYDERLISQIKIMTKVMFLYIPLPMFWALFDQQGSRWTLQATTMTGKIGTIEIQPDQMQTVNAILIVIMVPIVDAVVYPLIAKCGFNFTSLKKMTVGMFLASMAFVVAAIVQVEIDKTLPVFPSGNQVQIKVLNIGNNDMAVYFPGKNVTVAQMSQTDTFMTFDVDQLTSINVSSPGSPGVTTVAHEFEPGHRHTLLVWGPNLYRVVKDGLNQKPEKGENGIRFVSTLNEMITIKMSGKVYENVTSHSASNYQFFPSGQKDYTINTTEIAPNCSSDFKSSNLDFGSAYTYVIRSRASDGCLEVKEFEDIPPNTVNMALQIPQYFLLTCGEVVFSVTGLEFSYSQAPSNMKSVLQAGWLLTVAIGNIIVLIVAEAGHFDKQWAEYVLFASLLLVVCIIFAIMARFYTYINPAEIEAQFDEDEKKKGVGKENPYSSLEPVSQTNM
# [7] = target: T4, Solute carrier family 15 member 2 (Rattus norvegicus, UniProt Q63424); assay: TP_TRANSPORTER: inhibition of Gly-Sar uptake in PEPT2-expressing LLC-PK1 cells
# T4 sequence (Q63424 whole entry): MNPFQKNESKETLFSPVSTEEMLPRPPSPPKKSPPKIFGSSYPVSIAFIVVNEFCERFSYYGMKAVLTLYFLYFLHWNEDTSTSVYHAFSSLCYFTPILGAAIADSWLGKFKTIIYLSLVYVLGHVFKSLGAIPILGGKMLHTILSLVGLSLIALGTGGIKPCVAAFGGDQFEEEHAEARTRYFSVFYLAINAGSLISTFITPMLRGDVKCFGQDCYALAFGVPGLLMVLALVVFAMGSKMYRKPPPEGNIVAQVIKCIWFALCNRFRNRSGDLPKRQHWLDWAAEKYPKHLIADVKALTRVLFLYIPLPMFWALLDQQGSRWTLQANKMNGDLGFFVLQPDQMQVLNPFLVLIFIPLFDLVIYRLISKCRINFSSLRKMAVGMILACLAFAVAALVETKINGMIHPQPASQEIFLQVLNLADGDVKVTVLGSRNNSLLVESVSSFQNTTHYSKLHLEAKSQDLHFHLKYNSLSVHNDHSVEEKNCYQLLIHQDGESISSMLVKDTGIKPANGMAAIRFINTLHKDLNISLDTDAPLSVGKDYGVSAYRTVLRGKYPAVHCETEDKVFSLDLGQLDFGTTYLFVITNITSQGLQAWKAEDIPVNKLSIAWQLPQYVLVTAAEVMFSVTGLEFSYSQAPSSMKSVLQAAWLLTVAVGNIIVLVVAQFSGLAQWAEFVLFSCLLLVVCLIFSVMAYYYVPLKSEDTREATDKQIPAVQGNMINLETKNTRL
# [8] = target: T1, Solute carrier family 15 member 1 (Rattus norvegicus); assay: TP_TRANSPORTER: inhibition of Gly-Sar uptake (Gly-Sar: 20 uM, Val-OBzl: 10000 uM) in PEPT1-expressing LLC-PK1 cells
# [9] = target: T2, Solute carrier family 15 member 2 (Rattus norvegicus); assay: TP_TRANSPORTER: inhibition of Gly-Sar uptake (Gly-Sar: 20 uM, Val-OBzl: 10000 uM) in PEPT2-expressing LLC-PK1 cells
# [10] = target: T2, Solute carrier family 15 member 2 (Rattus norvegicus); assay: TP_TRANSPORTER: inhibition of Gly-Sar uptake (Gly-Sar: 20 uM, Ile-OMe: 10000 uM) in PEPT2-expressing LLC-PK1 cells
# [11] = target: T1, Solute carrier family 15 member 1 (Rattus norvegicus); assay: TP_TRANSPORTER: inhibition of Gly-Sar uptake (Gly-Sar: 20 uM, Ile-OMe: 10000 uM) in PEPT1-expressing LLC-PK1 cells
structure (smiles),measurement,setting,value
COC(=O)[C@H](C)N,Activity,[1],inhibitor [+]
same,Activity,[2],inhibitor [+]
CC(C)[C@H](N)C(=O)OC(C)(C)C,Activity,[3],inhibitor [+]
same,Activity,[4],inhibitor [+]
COC(=O)[C@@H](N)Cc1ccc(O)cc1,Activity,[5],inhibitor [+]
CC(C)[C@H](N)C(=O)OCCOCn1cnc2c(=O)[nH]c(N)nc21 [VALACYCLOVIR],pKi,[6],2.60 and 2.57
same,pKi,[7],3.66
same,pKi,[7]; llc-pk1,3.66
CC(C)[C@H](N)C(=O)OCc1ccccc1,Activity,[8],inhibitor [+]
same,Activity,[9],inhibitor [+]
CC[C@H](C)[C@H](N)C(=O)OC,Activity,[10],inhibitor [+]
same,Activity,[11],inhibitor [+]
